PubChem BioAssay (NCI)
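96-well plates; 48 h exposure; 5 concentrations. Endpoints by linear interpolation between flanking doses. Not reached: highest tested concentration assigned. Definition used: TGI = concentration required for complete inhibition of growth.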 Where a SMILES comes first, the peptide text is derived from it. [ ]: non-standard residue; d: D form. The star is where a group is joined. ξ: configuration not given here. Propanoyl(3-(4-MeO-Ph)) = COc1ccc(CCC(=O)*)cc1; Thr(3ξ) = CC(O)[C@H](N)C(=O)O; dNMeL = CN[C@H](CC(C)C)C(=O)O; OBn = c1ccc(CO*)cc1; ξLac = CC(O)C(=O)O

Tests used:
Test in all cases: DTP human tumour cell line panel, 48 h
A549 NSCLC = tested on: A549 NSCLC
BT-549 breast = tested on: BT-549 breast
CAKI-1 renal = tested on: CAKI-1 renal
HCC-2998 colon = tested on: HCC-2998 colon
KM12 colon = tested on: KM12 colon
NCI-H460 lung = tested on: NCI-H460 lung
NCI/ADR-RES ovarian = tested on: NCI/ADR-RES ovarian
OVCAR-4 ovarian = tested on: OVCAR-4 ovarian
SF-268 CNS = tested on: SF-268 CNS
TK-10 renal = tested on: TK-10 renal

| SMILES | TGI (A549 NSCLC) [µM] | TGI (BT-549 breast) [µM] | TGI (CAKI-1 renal) [µM] | TGI (HCC-2998 colon) [µM] | TGI (KM12 colon) [µM] | TGI (NCI-H460 lung) [µM] | TGI (NCI/ADR-RES ovarian) [µM] | TGI (OVCAR-4 ovarian) [µM] | TGI (SF-268 CNS) [µM] | TGI (TK-10 renal) [µM] |
| --- | --- | --- | --- | --- | --- | --- | --- | --- | --- | --- |
| COC(=O)c1ccc(CCc2cc(O)c(Br)cc2O)cc1 | 50.5 | 15.8 | 23.2 | 32.9 | > 55.3 | 33.3 | 43.2 | 23.2 | 34.1 | 27.6 |
| CCCC#CC(O)(C(=O)OC1CCN(C)CC1)C1CCCCC1 (stereo not given) | > 100 | > 100 | > 100 | > 100 | > 100 | > 100 | > 100 | > 100 | > 100 | > 100 |
| CC(=O)N1N=C(N)CC1=O | > 100 | > 100 | > 100 | > 100 | > 100 | > 100 | > 100 | > 100 | > 100 | > 100 |
| CC1(C)C(=O)C2(OS(=O)(=O)C(F)(F)F)CCC1C2 (stereo not given) | > 100 | > 100 | > 100 | > 100 | > 100 | > 100 | > 100 | > 100 | > 100 | > 100 |
| CCOC(=O)/C=C(\N=P(c1ccccc1)(c1ccccc1)c1ccccc1)C(F)(F)C(F)(F)C(F)(F)C(F)(F)C(F)(F)F | > 100 | > 100 | > 100 | > 100 | > 100 | > 100 | > 100 | > 100 | > 100 | > 100 |
| O=C(N/N=C\c1ccc([N+](=O)[O-])cc1)Nc1cccc2ccccc12 | > 100 | 23.4 | 33.1 | > 100 | > 100 | > 51.9 | > 100 | > 100 | > 55.5 | 63.6 |
| CCOC(=O)C1(C(=O)OCC)CC(=O)[C@@]2(C1)OCC[C@H]1OC(=O)C[C@H]12 | > 100 | > 100 | > 100 | > 100 | > 100 | > 100 | > 100 | > 100 | > 100 | > 100 |
| O=c1[nH]c2ccc(CC(=S)N3CCN(c4ccccc4)CC3)cc2o1 | > 100 | > 100 | > 100 | > 100 | > 100 | > 100 | > 100 | > 100 | > 100 | > 100 |
| COc1ccc(C2SCC(=O)N2NC(=O)C(C)Oc2ccccc2Cl)cc1 (stereo not given) | > 100 | > 100 | > 100 | > 100 | > 100 | > 100 | > 100 | > 100 | > 100 | > 100 |
| NCCCc1c(-c2ccccc2)nc(N)[nH]c1=O | > 100 | > 100 | > 100 | > 100 | > 100 | > 100 | > 100 | > 100 | > 100 | > 100 |
| Cc1ccc2cccc3c2c1CC1(C3=O)S(=O)(=O)OCCOS1(=O)=O | > 100 | > 100 | > 100 | > 100 | > 100 | > 100 | > 100 | > 100 | > 100 | > 100 |
| COc1ccc(CCC(=O)OC(C)[C@H](NC(=O)[C@@H](CC(C)C)N(C)C(=O)[C@@H]2CCCN2C(=O)C(C)O)C(=O)OCc2ccccc2)cc1 (stereo not given in full) (H-[ξLac]P[dNMeL][Thr(3ξ)](Propanoyl(3-(4-MeO-Ph)))-OBn) | > 100 | > 100 | > 100 | > 100 | 79.4 | > 100 | > 100 | > 100 | 99.5 | > 100 |
| CC(=O)O[C@H]1CC[C@@]2(C)C(=CC[C@@H]3[C@@H]2CC[C@]2(C)c4c(cc(C#N)c(=N)n4C(C)=O)C[C@@H]32)C1 | 64.8 | 34.8 | 95.8 | 41.9 | 32.8 | 30.3 | 39.6 | 39.4 | 62.7 | 66.8 |
| CC1=C(C(=O)Nc2ccccc2)C(c2ccc(C)o2)C(C#N)=C(SCc2ccccc2)N1 (stereo not given) | > 100 | > 100 | > 100 | > 100 | > 100 | > 100 | > 100 | > 100 | > 100 | > 100 |
| Clc1ccc2c(NCCNc3ccnc4cc(Cl)ccc34)ccnc2c1 | 35.6 | 36.8 | 34.8 | 28.5 | 32.5 | 27 | > 100 | 35.5 | 70.6 | 34.6 |
| N=c1oc2ccc(Cl)cc2cc1C(=O)NCc1ccccc1 | > 100 | > 100 | > 100 | > 100 | > 100 | > 100 | > 100 | > 100 | > 100 | > 100 |
| CCOC(=O)COc1c(OC)cc(C2C3=C(COC3=O)Oc3cc4c(cc32)OCO4)cc1OC (stereo not given) | > 100 | 98.1 | 38.1 | 30.7 | > 100 | 49.4 | > 37.3 | 24.9 | > 100 | 20.9 |
| N#CC(N=Nc1ccccc1)c1nc2ccccc2o1 (stereo not given) | > 100 | 46 | > 100 | > 100 | > 100 | > 100 | 64 | 37.9 | 59.9 | 58.3 |
